Experimental data: patent US11498896B2 (The Broad Institute, Inc., priority 2014, dated 2022)

How the values were obtained:
[1] = molecular target: T1, human D2R/β-arrestin (Homo sapiens (Human), UniProt P14416); test: cell-based; conditions: β-arrestin Antagonist, CHO-K1 cells expressing human D2R/β-arrestin; antagonist mode, quinpirole 130 nM
[2] = molecular target: T1, human D2R/β-arrestin; test: cell-based; conditions: cAMP Antagonist, CHO-K1 cells expressing human D2R/β-arrestin; antagonist mode, 2.5 μM forskolin and 2.7 nM quinpirole
Description: Cells were prepared for assays by growing cultures for up to 2 weeks (from about 6-20 passages). A vial of frozen cells was thawed in a water bath held at 37° C. The cells were then transferred into a 50 ml tube with 10 ml growth media. The vial was rinsed with growth media and the contents transferred to the 50 ml tube. The 50 ml tube was centrifuged at 1200 rpm for 5 minutes at room temperature. […] When the cells reached about 90% confluence (approximately 3 days between passages), the cells were passaged and used for either the agonist or antagonist assays as described below.
The cells were prepared for Gi/cAMP assays as described above. The assays were performed using a PE Lance Ultra cAMP kit (TRF0263). The cells were grown on 225 mm dishes, then washed once with 1×PBS (Cellgro) before digestion with 2.5 ml 1× Detachment reagent (DRX 92-0009) for about 2 minutes. PBS (20 ml) was then added to the plate, and the cells were transferred to a 50 ml centrifuge tube, and centrifuged at room temperature using BD Dynac III, at 1200 rpm for 5 minutes. […] The plates were then incubated at room temperature for about 30 minutes before addition of Eu-cAMP tracer solution (10 μl, PerkinElmer) and then ULight-anti-cAMP solution (10 μl) to each well.

[3] = molecular target: T1, human D2R/β-arrestin; test: Gi/cAMP agonist assay (Lance Ultra cAMP, forskolin); type: cell-based; conditions: CHO-K1 cells expressing human D2R/β-arrestin; agonist mode, 2.5 μM forskolin
Description: Eu-cAMP tracer solution (10 μl, PerkinElmer, 360 μl of Tracer in 17.64 ml kit buffer) and ULight-anti-cAMP solution (10 μl, 120 μL antibody in 17.88 ml kit buffer) was then added to each well.

[4] = molecular target: T1, human D2R/β-arrestin; test: β-arrestin agonist assay (PathHunter); type: cell-based; conditions: CHO-K1 cells expressing human D2R/β-arrestin; agonist mode
Description: The detection reagent (9.6 μL, Buffer:Emerald II:Galactor-Star in a 19:5:1 ratio, i.e., 14.06 mL:3.7 mL:0.74 mL=18.5 mL) was then added to the agonist plates.

T1 sequence (P14416 whole entry): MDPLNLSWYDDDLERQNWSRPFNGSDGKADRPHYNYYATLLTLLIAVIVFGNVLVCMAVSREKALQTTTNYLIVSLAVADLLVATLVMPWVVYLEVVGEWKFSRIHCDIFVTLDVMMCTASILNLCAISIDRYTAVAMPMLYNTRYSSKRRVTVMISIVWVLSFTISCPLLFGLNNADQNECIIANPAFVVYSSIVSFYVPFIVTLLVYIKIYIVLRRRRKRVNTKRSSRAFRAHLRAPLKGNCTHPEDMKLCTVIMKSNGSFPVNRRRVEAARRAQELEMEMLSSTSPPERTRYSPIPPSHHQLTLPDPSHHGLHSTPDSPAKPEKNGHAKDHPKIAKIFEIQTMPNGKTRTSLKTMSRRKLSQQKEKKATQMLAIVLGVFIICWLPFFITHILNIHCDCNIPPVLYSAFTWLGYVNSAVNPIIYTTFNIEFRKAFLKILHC

| SMILES | IC50 [1] [nM] | IC50 [2] [nM] | EC50 [3] [nM] | EC50 [4] [nM] |
| --- | --- | --- | --- | --- |
| CC1(Oc2ccccc2)CCN(CCOc2ccccn2)CC1 [Compound 174, 2-(2-(4-methyl-4-phenoxypiperidin-1-yl)ethoxy)pyridine] | > 30000 | > 30000 | < 100 | 100 to 1000 |
| CC1(Oc2ccccc2)CCN(CCOc2cccc3[nH]ccc23)CC1 [Compound 175, 4-(2-(4-methyl-4-phenoxypiperidin-1-yl)ethoxy)-1H-indole] | < 100 | > 30000 | < 100 | 100 to 1000 |
| CC(C)C1(O)CCN(CCOc2ccccc2C(F)(F)F)CC1 [Compound 176, 4-isopropyl-1-(2-(2-(trifluoromethyl)phenoxy)ethyl)piperidin-4-ol] | 100 to 1000 | < 100 | > 30000 | > 30000 |
| CC1(O)CCN(C2CCCN(c3ccccc3C(F)(F)F)C2)CC1 (stereo not shown) [Compound 177, 4-methyl-1′-(2-(trifluoromethyl)phenyl)-[1,3′-bipiperidin]-4-ol] | 1000 to 10000 | 1000 to 10000 | > 30000 | > 30000 |
| Clc1ccc(N2CCCC23CCN(CC2COc4ccccc4O2)CC3)cc1 (stereo not shown) [Compound 178, 1-(4-chlorophenyl)-8-((2,3-dihydrobenzo[b][1,4]dioxin-2-yl)methyl)-1,8-diazaspiro[4.5]decane] | < 100 | < 100 | > 30000 | > 30000 |
| FC(F)(F)c1ccccc1OCCN1CCC2(CC1)Cc1ccccc1O2 [Compound 179, 1′-(2-(2-(trifluoromethyl)phenoxy)ethyl)-3H-spiro[benzofuran-2,4′-piperidine]] | 1000 to 10000 | 100 to 1000 | > 30000 | > 30000 |
| CC1(Oc2ccc(Cl)cc2)CCN(CCOc2cccc(F)c2)C1 (stereo not shown) [Compound 180, 3-(4-chlorophenoxy)-1-(2-(3-fluorophenoxy)ethyl)-3-methylpyrrolidine] | 1000 to 10000 | > 30000 | < 100 | > 30000 |
| c1ccc(OCCN2CCC3(Cc4ccccc4O3)C2)cc1 (stereo not shown) [Compound 181, 1′-(2-phenoxyethyl)-3H-spiro[benzofuran-2,3′-pyrrolidine]] | 1000 to 10000 | < 100 | > 30000 | > 30000 |
| CC1(Oc2ccc(Cl)cc2)CCN(CCOc2cccnc2)CC1 [Compound 182, 3-(2-(4-(4-chlorophenoxy)-4-methylpiperidin-1-yl)ethoxy)pyridine] | > 30000 | > 30000 | < 100 | 100 to 1000 |
| CC1(Oc2ccc(Cl)cc2)CCN(CCOc2ccncc2)CC1 [Compound 183, 4-(2-(4-(4-chlorophenoxy)-4-methylpiperidin-1-yl)ethoxy)pyridine] | 1000 to 10000 | > 30000 | 100 to 1000 | 1000 to 10000 |
| CC1(Oc2ccc(Cl)cc2)CCN(CCOc2ccc(C(F)(F)F)c(O)c2)CC1 [Compound 184, 5-(2-(4-(4-chlorophenoxy)-4-methylpiperidin-1-yl)ethoxy)-2-(trifluoromethyl)phenol] | 10000 to 30000 | > 30000 | 1000 to 10000 | > 30000 |
| CC1(Oc2ccc(Cl)cc2)CCN(CCOc2ccc(C#N)cc2)CC1 [Compound 185, 4-(2-(4-(4-chlorophenoxy)-4-methylpiperidin-1-yl)ethoxy)benzonitrile] | 10000 to 30000 | > 30000 | 1000 to 10000 | > 30000 |
| CC1(Oc2ccc(Cl)cc2)CCN(CCOc2cn[nH]c2)CC1 [Compound 186, 1-(2-((1H-pyrazol-4-yl)oxy)ethyl)-4-(4-chlorophenoxy)-4-methylpiperidine] | 1000 to 10000 | 100 to 1000 | 100 to 1000 | 1000 to 10000 |
| CC(=O)c1cc(F)ccc1OCCN1CCC(C)(Oc2ccc(Cl)cc2)CC1 [Compound 187, 1-(2-(2-(4-(4-chlorophenoxy)-4-methylpiperidin-1-yl)ethoxy)-5-fluorophenyl)ethan-1-one] | 1000 to 10000 | 1000 to 10000 | 100 to 1000 | > 30000 |
| COc1ccccc1OCCN1CCC(C)(Oc2ccc(Cl)cc2)CC1 [Compound 188, 4-(4-chlorophenoxy)-1-(2-(2-methoxyphenoxy)ethyl)-4-methylpiperidine] | 100 to 1000 | 1000 to 10000 | 100 to 1000 | > 30000 |
| COc1cc(F)c(F)cc1OCCN1CCC(C)(Oc2ccc(Cl)cc2)CC1 [Compound 189, 4-(4-chlorophenoxy)-1-(2-(4,5-difluoro-2-methoxyphenoxy)ethyl)-4-methylpiperidine] | 1000 to 10000 | 1000 to 10000 | 1000 to 10000 | > 30000 |

| SMILES | IC50 [1] [nM] | IC50 [2] [nM] | EC50 [3] [nM] | EC50 [4] [nM] |
| --- | --- | --- | --- | --- |
| CC(C)Oc1ccc(F)cc1OCCN1CCC(C)(Oc2ccc(Cl)cc2)CC1 [Compound 190, 4-(4-chlorophenoxy)-1-(2-(5-fluoro-2-isopropoxyphenoxy)ethyl)-4-methylpiperidine] | 1000 to 10000 | 100 to 1000 | 100 to 1000 | > 30000 |
| CC(C)Oc1cc(F)ccc1OCCN1CCC(C)(Oc2ccc(Cl)cc2)CC1 [Compound 191, 4-(4-chlorophenoxy)-1-(2-(4-fluoro-2-isopropoxyphenoxy)ethyl)-4-methylpiperidine] | 1000 to 10000 | 100 to 1000 | > 30000 | > 30000 |
| CC(C)C1(Oc2ccc(Cl)cc2)CCN(CCOc2ccccc2C(F)(F)F)CC1 [Compound 192, 4-(4-chlorophenoxy)-4-isopropyl-1-(2-(2-(trifluoromethyl)phenoxy)ethyl)piperidine] | 1000 to 10000 | 100 to 1000 | 1000 to 10000 | > 30000 |
| C#CC1(Oc2ccc(Cl)cc2)CCN(CCOc2ccccc2C(F)(F)F)CC1 [Compound 193, 4-(4-chlorophenoxy)-4-ethynyl-1-(2-(2-(trifluoromethyl)phenoxy)ethyl)piperidine] | 1000 to 10000 | > 30000 | < 100 | 1000 to 10000 |
| C#CC1(Oc2ccccc2)CCN(CCOc2ccccc2C(F)(F)F)CC1 [Compound 194, 4-ethynyl-4-phenoxy-1-(2-(2-(trifluoromethyl)phenoxy)ethyl)piperidine] | 1000 to 10000 | > 30000 | < 100 | 100 to 1000 |
| CC1(Oc2ccc(Cl)cc2)CCN(CCn2cccc(C(F)(F)F)c2=O)CC1 [Compound 195, 1-(2-(4-(4-chlorophenoxy)-4-methylpiperidin-1-yl)ethyl)-3-(trifluoromethyl)pyridin-2(1H)-one] | > 30000 | > 30000 | > 30000 | > 30000 |
| C[C@@]1(O)C[C@H]2CC[C@@H](C1)N2CCOc1ccccc1C(F)(F)F [Compound 196, (1R,3s,5S)-3-methyl-8-(2-(2-(trifluoromethyl)phenoxy)ethyl)-8-azabicyclo[3.2.1]octan-3-ol] | 10000 to 30000 | 1000 to 10000 | > 30000 | > 30000 |
| CNC(=O)C1(C)CCN(CCOc2ccccc2C(F)(F)F)CC1 [Compound 198, N,4-dimethyl-1-(2-(2-(trifluoromethyl)phenoxy)ethyl)piperidine-4-carboxamide] | < 100 | < 100 | > 30000 | > 30000 |
| CNC(=O)C1(C)CCN(CCOc2ccccc2)CC1 [Compound 199, N, 4-dimethyl-1-(2-phenoxyethyl)piperidine-4-carboxamide] | 1000 to 10000 | > 30000 | 100 to 1000 | > 30000 |
| CNC(=O)C1(C)CCN(CCOc2ccccc2F)CC1 [Compound 200, 1-(2-(2-fluorophenoxy)ethyl)-N,4-dimethylpiperidine-4-carboxamide] | 1000 to 10000 | 100 to 1000 | 100 to 1000 | > 30000 |
| CNC(=O)C1(C)CCN(CCOc2ccccc2OC)CC1 [Compound 201, 1-(2-(2-methoxyphenoxy)ethyl)-N,4-dimethylpiperidine-4-carboxamide] | 1000 to 10000 | 100 to 1000 | > 30000 | > 30000 |
| CNC(=O)C1(C)CCN(CC2COc3ccccc3O2)CC1 (stereo not shown) [Compound 202, 1-((2,3-dihydrobenzo[b][1,4]dioxin-2-yl)methyl)-N,4-dimethylpiperidine-4-carboxamide] | 100 to 1000 | 100 to 1000 | < 100 | > 30000 |
| CC1(C(=O)NC2CC2)CCN(CC2COc3ccccc3O2)CC1 (stereo not shown) [Compound 203, N-cyclopropyl-1-((2,3-dihydrobenzo[b][1,4]dioxin-2-yl)methyl)-4-methylpiperidine-4-carboxamide] | 100 to 1000 | 1000 to 10000 | < 100 | > 30000 |
| CC1(C(=O)Nc2ccccc2)CCN(CC2COc3ccccc3O2)CC1 (stereo not shown) [Compound 204, 1-((2,3-dihydrobenzo[b][1,4]dioxin-2-yl)methyl)-4-methyl-N-phenylpiperidine-4-carboxamide] | 1000 to 10000 | 100 to 1000 | 100 to 1000 | > 30000 |
| CNCC1(C)CCN(C[C@H]2COc3ccccc3O2)CC1 [Compound 207, (S)-1-(1-((2,3-dihydrobenzo[b][1,4]dioxin-2-yl)methyl)-4-methylpiperidin-4-yl)-N-methylmethanamine] | 1000 to 10000 | > 30000 | 1000 to 10000 | 1000 to 10000 |
